Assay results reported in ChEMBL document CHEMBL1151429, “Novel drug resistance pattern associated with the mutations K70G and M184V in human immunodeficiency virus type 1 reverse transcriptase” (2007).

How the values were obtained:
Type in all cases: functional
[1] = test system: Human immunodeficiency virus 1; test: Antiviral activity against HIV1 LAI with reverse transcriptase K70E mutation relative to wild type HIV1 LAI
[2] = test system: Human immunodeficiency virus 1; test: Ratio of IC50 for HIV1 with reverse transcriptase K70G/M184V mutation to IC50 for wild type HIV1
[3] = test system: Human immunodeficiency virus 1; test: Antiviral activity against HIV1 with reverse transcriptase K70E M184V and K70G M184V mutation by antivirogram biological cutoffs assay relative to wild type HIV1
[4] = test system: Human immunodeficiency virus 1; test: Ratio of IC50 for HIV1 with reverse transcriptase K70G mutation to IC50 for wild type HIV1
[5] = test system: Human immunodeficiency virus 1; test: Ratio of IC50 for HIV1 with reverse transcriptase K70E/M184V mutation to IC50 for wild type HIV1

SMILES	fold change (FC) [1]	Ratio IC50 [2]	fold change (FC) [3]	Ratio IC50 [4]	Ratio IC50 [5]
C[C@H](Cn1cnc2c(N)ncnc21)OCP(=O)(O)OP(=O)(O)OP(=O)(O)O	2.1				
Nc1nc(NC2CC2)c2ncn([C@H]3C=C[C@@H](CO)C3)c2n1 [ABACAVIR]		3.2	2.2	2.1	1.3
Nc1nc(=O)c2ncn([C@H]3C=C[C@@H](COP(=O)(O)OP(=O)(O)OP(=O)(O)O)C3)c2[nH]1 [CARBOVIR 5'-TRIPHOSPHATE, (-)-]	2.3				
O=c1[nH]cnc2c1ncn2[C@H]1CC[C@@H](CO)O1 [DIDANOSINE]		5.3	2.2	2.1	1.6
Nc1nc(=O)n([C@@H]2CS[C@H](CO)O2)cc1F [EMTRICITABINE]		>63.4	3.5		>40.8
Nc1ccn([C@@H]2CS[C@H](COP(=O)(O)OP(=O)(O)OP(=O)(O)O)O2)c(=O)n1 [LAMIVUDINE TRIPHOSPHATE]	3.5				
Nc1ccn([C@@H]2CS[C@H](CO)O2)c(=O)n1 [LAMIVUDINE]			2.4		
Cc1cn([C@H]2C=C[C@@H](CO)O2)c(=O)[nH]c1=O [STAVUDINE]		0.9	2.3	1.3	0.4
C[C@H](Cn1cnc2c(N)ncnc21)OCP(=O)(O)O [TENOFOVIR ANHYDROUS]		1.5	2.1	1.9	1.7
Cc1cn([C@H]2C[C@H](N=[N+]=[N-])[C@@H](CO)O2)c(=O)[nH]c1=O [ZIDOVUDINE]		<0.8	2.7		<0.3
